We go through three substances from patent US4412988A, “Hexapeptides” (Roussel Uclaf, priority 1980, dated 1983).

The experiment deals with rats. The experiment is described as follows: Action against extinction of a practice of active avoiding a negative reinforcement (conditional avoidance response, deWeid apparatus). Type of experiment: in vivo. The settings on record: subcutaneous, phosphate-zinc complex, percent relative to conditional responses in first extinction test before treatment; for % of conditional response in course of extinction period after 2 hours: 2 hours after injection, untreated control 60; for % of conditional response in course of extinction period after 4 hours: 4 hours after injection, untreated control 30. The procedure: The action against extinction of a practice of active avoiding a negative reinforcement was determined using an apparatus described by deWeid (Proc. Soc. Ex. Biol. Med.,) Vol. 122 ([…]) p. 28). The practice is effected in a box equipped with a 60 W lamp (conditional stimulus: CS), a mat and an electrifiable floor connected to an electric stimulus which permits the delivery of a painful shock of 75 volts (unconditional stimulus US). The conditional stimulus is present only for 5 seconds, then is associated with an unconditional stimulus just as the animal grips the mat realizing as well the avoidance response desired. The conditional response is acquired when the animal responds to the conditional stimulus.
10 tests at 60 second intervals were effected daily for 3 days and examination of the extinction of the practice realized with suppression of the unconditional stimulus is followed on the 4th day with 3 tests at 2 hour intervals with the animals presenting at least 7 conditional responses.
The compounds were injected subcutaneously as a phosphate-zinc complex before the first test of extinction of practice to group of 5 rats and the results were compared with an untreated control group of rats. The evolution of the conditional response in the course of the period of extinction of practice 2 and 4 hours after the injection of the compound is expressed as the percent of variation with respect to the number of conditional responses observed in the first test of extinction before treatment.

“Acetate of cyclic disulfide (1→6) of N-[cysteinylalanylalanylphenylalanyl-D-lysyl]-cysteine [Example 1]”: the “% of conditional response in course of extinction period after 2 hours” value (“% of conditional response … after 2 hours” below) (dose 1 μg/rat) was 51% and the “% of conditional response … after 2 hours” value (dose 10 μg/rat) turned out to be 76%. Further, the “% of conditional response in course of extinction period after 4 hours” value (shortened to “% of conditional response … after 4 hours”) is, setting by setting: (dose 1 μg/rat) 49%; (dose 10 μg/rat) 71%.

“Acetate of cyclic disulide (1→4) of N-[Cysteinylalanylanylcysteinyl-D-lysyl]-phenylalanine [Example 2]”: where the note is “dose 1 μg/rat”, the “% of conditional response … after 2 hours” value worked out at 59% and the “% of conditional response … after 4 hours” value came out at 35%. Further, under “dose 10 μg/rat”, the “% of conditional response … after 2 hours” value stood at 71% and the “% of conditional response … after 4 hours” value amounted to 75%.

With “Cyclic disulfide (1→4) of N-[cysteinylglutamylhistidylcysteinyl-D-lysyl]-phenylalanine [Example 3]”, the “% of conditional response … after 2 hours” value was 75% (dose 1 μg/rat) and 70% (dose 10 μg/rat). Besides, the “% of conditional response … after 4 hours” value (dose 1 μg/rat) is listed as 29% and the “% of conditional response … after 4 hours” value (dose 10 μg/rat) turned out to be 50%.
